Consider 61 compounds from ChEMBL document CHEMBL1149137, “Synthesis, screening, and molecular modeling of new potent and selective antagonists at the alpha 1d adrenergic receptor” (J Med Chem, 2004).

In general, Ki refers to a measure of affinity in units of concentration, obtained from inhibition or displacement. The low end stands for a stronger hold on the target, the high end for a looser hold on the target.

A value given as a limit tells only on which side of the number the result lay.

For assay [1], the target named is T1, 5-hydroxytryptamine receptor 1A (Homo sapiens, UniProt P08908).
T1 sequence (P08908 whole entry): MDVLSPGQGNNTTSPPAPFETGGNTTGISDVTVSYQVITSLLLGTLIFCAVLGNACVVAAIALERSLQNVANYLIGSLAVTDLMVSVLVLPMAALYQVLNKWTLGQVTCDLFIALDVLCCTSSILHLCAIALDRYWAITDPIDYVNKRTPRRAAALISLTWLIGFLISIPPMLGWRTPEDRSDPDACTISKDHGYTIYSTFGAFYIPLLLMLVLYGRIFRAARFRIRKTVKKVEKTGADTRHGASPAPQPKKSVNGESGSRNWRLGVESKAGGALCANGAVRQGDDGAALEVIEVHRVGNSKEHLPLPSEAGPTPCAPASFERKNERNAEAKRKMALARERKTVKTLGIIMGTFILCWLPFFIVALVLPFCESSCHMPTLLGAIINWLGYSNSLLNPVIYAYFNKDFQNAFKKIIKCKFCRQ
Description: Binding affinity to human 5-hydroxytryptamine 1A receptor was measured using [3H]-8-hydroxy-2-(di-n-propylamine) tetraline [3H]8-OH-DPAT) as radioligand.

Assay [2] concerns the target Alpha-1A adrenergic receptor (Homo sapiens) (UniProt P35348). Description: In vitro binding affinity towards alpha-1A adrenergic receptor through displacement of [3H]prazosin in cloned human receptor. Background: In a radioligand displacement assay an active substance lowers the binding of a labelled ligand.
Assay [3] concerns the target Alpha-1D adrenergic receptor (Homo sapiens) (UniProt P25100). Description: Binding affinity to the adrenergic receptor alpha-1D of cloned human receptor.

In the case of `O=C1CC2(CCCC2)CC(=O)N1CCN1CCN(c2cccc(Cl)c2)CC1`, the Ki in assay [1] was 1.09 nM; in assay [2] it was > 1000 nM; in assay [3] it was 2.02 nM.
For `O=C1CC2(CCCC2)CC(=O)N1CCN1CCN(c2cc(I)ccc2Cl)CC1`, the Ki in assay [2] amounted to 479 nM; in assay [3] it was 15.3 nM.
`CC1CN(c2ccccc2[N+](=O)[O-])CC(C)N1CCN1C(=O)CC2(CCCC2)CC1=O` (stereo not given): the Ki is 399 nM in assay [1] and > 1000 nM in assay [3].
As to `O=C1CC2(CCCC2)CC(=O)N1CCN1CCN(c2ccccc2)CC1`, the results for the Ki in assay [1], in assay [2] and in assay [3] were 35.7 nM, 3350 nM and 4.32 nM, respectively.
In the case of `O=C1CC2(CCCC2)CC(=O)N1CCN1CCN(c2cc([N+](=O)[O-])ccc2F)CC1`, the values for the Ki in assay [1] and in assay [3] were > 1000 nM and 46.3 nM, respectively.
For the compound `CN(CCOc1ccccc1Cl)CCN1C(=O)CC2(CCCC2)CC1=O`, the inhibitory constant (Ki) in assay [1] amounted to 125 nM; in assay [3], 14.8 nM.
Take `O=C1CC2(CCCC2)CC(=O)N1CCN1CCN(c2cc(Br)ccc2Br)CC1`: the figures for the Ki in assay [2] and in assay [3] were 114 nM and 3.72 nM, respectively.
For `COc1ccccc1N1CCN(CCN2C(=O)CC3(CCNCC3)CC2=O)CC1`, the Ki was > 1000 nM in assay [1], 631 nM in assay [2] and 71.7 nM in assay [3].
`O=C1CCC(=O)N1CCN1CCN(c2cc(Cl)ccc2Cl)CC1` displayed a Ki in assay [3] of 7.78 nM.
Turning to `CN(CCCOc1cc(Cl)ccc1Cl)CCN1C(=O)CC2(CCCC2)CC1=O`, the Ki worked out at 452 nM in assay [1] and 110 nM in assay [3].
On the same counts, the results for `O=C1CC2(CCCC2)CC(=O)N1CCNCCOc1cc(Cl)ccc1Cl` are > 1000 nM and 207 nM.
Take `CC(C)Oc1ccccc1N1CCN(CCN2C(=O)CC3(CCCC3)CC2=O)CC1`: the Ki in assay [1] is 0.54 nM; in assay [2], 3.54 nM; in assay [3] it was 2.9 nM.
On to `CC(C)c1ccc(N2CCN(CCN3C(=O)CC4(CCCC4)CC3=O)CC2)cc1`, for which the Ki in assay [1] and in assay [3] was > 1000 nM throughout.
Turning to `O=C1CC2(CCCC2)CC(=O)N1CCN1CCC(c2cc(Cl)ccc2Cl)CC1`, the Ki in assay [2] amounted to 119 nM; in assay [3], 1.5 nM.
Consider `O=C1CC2(CCCC2)C(=O)N1CCN1CCN(c2cc(Cl)ccc2Cl)CC1`, for which the Ki in assay [2] is 68.3 nM; in assay [3], 3.11 nM.
`O=C1CC2(CCCC2)CC(=O)N1CCN1CCN(c2cc([N+](=O)[O-])ccc2Cl)CC1`: the Ki in assay [1] was > 1000 nM; in assay [2], 44 nM; in assay [3], 18.2 nM.
As for `O=C1C=CC(=O)N1CCN1CCN(c2cc(Cl)ccc2Cl)CC1`, the values for the Ki in assay [1] and in assay [3] were > 1000 nM and 126 nM, respectively.
As for `O=C1CC2(CCCC2)CC(=O)N1CCN1CCC(c2ccccc2)CC1`, the Ki was 25.9 nM in assay [1], > 1000 nM in assay [2] and 3.66 nM in assay [3].
With `O=C1CC2(CCCC2)CC(=O)N1CCN1CCN(c2cccc(C(F)(F)F)c2)CC1`, the values for the Ki in assay [1] and in assay [3] were 8.22 nM and 153 nM, respectively.
As to `CN(CCOc1cc(Cl)ccc1Cl)CCN1C(=O)CC2(CCCC2)CC1=O`, the values for the Ki in assay [1], in assay [2] and in assay [3] were > 1000 nM, 414 nM and 19.1 nM, respectively.
With `O=C1CC2(CCCC2)CC(=O)N1CCN1CCN(c2cc(C(F)(F)F)ccc2Cl)CC1`, the inhibitory constant (Ki) in assay [1] was > 1000 nM; in assay [3], 39.1 nM.
`N#Cc1ccccc1N1CCN(CCN2C(=O)CC3(CCCC3)CC2=O)CC1`: the Ki in assay [1] worked out at 5.37 nM; in assay [2] it was 214 nM; in assay [3], 0.93 nM.
For `CCOC(=O)c1ccccc1N1CCN(CCN2C(=O)CC3(CCCC3)CC2=O)CC1`, the Ki in assay [1] came out at 4.07 nM; in assay [3], 29 nM.
As to `CC1CN(c2ccccc2[N+](=O)[O-])CCN1CCN1C(=O)CC2(CCCC2)CC1=O` (stereo not given), the Ki in assay [1] turned out to be 86.2 nM; in assay [3] it was 597 nM.
Consider `COc1ccccc1N1CCN(CCN2CCC3(CCCC3)CC2=O)CC1`, for which the Ki in assay [1] amounted to 2.33 nM; in assay [2], 54.4 nM; in assay [3], 0.37 nM.
For the compound `O=C1CC2(CCCC2)CC(=O)N1CCN1CCN(c2ccccc2O)CC1`, the Ki in assay [1] was determined as 1.36 nM; in assay [3] it was 16.1 nM.
In the case of `O=C1CC2(CCCC2)CC(=O)N1CCN1CCN(c2ccc(F)cc2)CC1`, the inhibition constant (Ki) in assay [1] was determined as 153 nM; in assay [3], 24.1 nM.
With `COc1ccccc1N1CCN(CCN2C(=O)CC3(CCN(C(C)=O)CC3)CC2=O)CC1`, the Ki is > 10 nM in assay [1], 1520 nM in assay [2] and 429 nM in assay [3].
As to `O=C1CC2(CCC2)CC(=O)N1CCN1CCN(c2cc(Cl)ccc2Cl)CC1`, the Ki was 120 nM in assay [2] and 2.65 nM in assay [3].
For the compound `O=C1CC2(CCCC2)CC(=O)N1CCN1CCN(c2ccccc2C(F)(F)F)CC1`, the figures for the Ki in assay [1] and in assay [3] were 26.3 nM and 5.25 nM, respectively.
On the same counts, the results for `O=C1CC2(CCCC2)CC(=O)N1CCN1CCN(c2ccccc2[N+](=O)[O-])CC1` are 11.3 nM and 15.3 nM.
With `Cc1ccc(C)c(N2CCN(CCN3C(=O)CC4(CCCC4)CC3=O)CC2)c1`, the results for the Ki in assay [2] and in assay [3] were 119 nM and 10.1 nM, respectively.
With `CN(CCN1C(=O)CC2(CCCC2)CC1=O)CCN(C)c1cc(Cl)ccc1Cl`, the Ki came to 786 nM in assay [2] and 16.4 nM in assay [3].
`O=C1CC2(CCCC2)CC(=O)N1CCN1CCN(c2cccc(Cl)c2Cl)CC1`: the Ki in assay [1] turned out to be 3.37 nM; in assay [3] it was 12.7 nM.
As to `Cc1ccc(N2CCN(CCN3C(=O)CC4(CCCC4)CC3=O)CC2)c(C)c1`, the Ki in assay [1] is 2360 nM; in assay [3], 73.3 nM.
On the same counts, the results for `O=C1CC2(CCCC2)CC(=O)N1CCN1CCN(c2c(Cl)cccc2Cl)CC1` are 234 nM and 29.9 nM.
As for `O=C1CC2(CCCC2)CC(=O)N1CCN1CCN(c2cc(C(F)(F)F)ccc2F)CC1`, the Ki in assay [2] was > 1000 nM; in assay [3], 7.56 nM.
On the same counts, the results for `O=C1CC2(CCCC2)CC(=O)N1CCN1CCN(c2cc(F)ccc2Cl)CC1` are 108 nM and 0.18 nM.
On the same counts, the results for `CC(CN1CCN(c2cc(Cl)ccc2Cl)CC1)N1C(=O)CC2(CCCC2)CC1=O` (stereo not given) are 187 nM and 0.41 nM.
On to `CN(CCN1C(=O)CC2(CCCC2)CC1=O)CC(=O)Nc1cc(Cl)ccc1Cl`, for which the values for the Ki in assay [1] and in assay [3] were > 10000 nM and > 1000 nM, respectively.
For `COc1ccc(N2CCN(CCN3C(=O)CC4(CCCC4)CC3=O)CC2)cc1` the same measures were 54.6 nM and 37.8 nM.
With `O=C1CC2(CCCC2)CC(=O)N1CCN1CCN(c2ccccc2C2CC2)CC1`, the Ki is 1.2 nM in assay [1], 10.9 nM in assay [2] and 1.34 nM in assay [3].
As for `O=C1CC2(CCCC2)CC(=O)N1CCN1CCN(c2ccccc2F)CC1`, the Ki in assay [2] is > 1000 nM.
`CN(CCN1C(=O)CC2(CCCC2)CC1=O)CC(=O)N(C)c1cc(Cl)ccc1Cl`: the Ki in assay [1] and in assay [3] was > 1000 nM throughout.
With `O=C1CC2(CCCC2)CC(=O)N1CCCN1CCN(c2cc(Cl)ccc2Cl)CC1`, the Ki in assay [1] stood at 401 nM; in assay [2], 2.85 nM; in assay [3], 1.72 nM.
On the same counts, the results for `O=C1CC2(CCCC2)CC(=O)N1CCN1CCN(c2ccccc2Br)CC1` are 1.29 nM, 376 nM and 1.6 nM.
Consider `N#Cc1ccc(Cl)cc1N1CCN(CCN2C(=O)CC3(CCCC3)CC2=O)CC1`, for which the Ki is 503 nM in assay [2] and 0.2 nM in assay [3].
For `COc1ccccc1OCCNCCN1C(=O)CC2(CCCC2)CC1=O`, the Ki was 526 nM in assay [1] and > 1000 nM in assay [3].
As to `O=C1CC2(CCCC2)CC(=O)N1CCN1CCCN(c2ccccc2Cl)CC1`, the figures for the inhibition constant Ki in assay [1], in assay [2] and in assay [3] were 0.34 nM, 295 nM and 1.38 nM, respectively.
On to `Clc1ccccc1N1CCN(CCN2CCC3(CCCC3)CC2)CC1`, for which the Ki in assay [1] was 85.4 nM; in assay [2] it was > 1000 nM; in assay [3] it was 8.74 nM.
As to `O=C1CC2(CCCCC2)CC(=O)N1CCN1CCN(c2cc(Cl)ccc2Cl)CC1`, the inhibition constant (Ki) in assay [2] stood at 331 nM; in assay [3], 2.21 nM.
Regarding `CN(CCNc1cc(Cl)ccc1Cl)CCN1C(=O)CC2(CCCC2)CC1=O`, the Ki in assay [1] is 717 nM; in assay [3] it was 674 nM.
On the same counts, the results for `CN(CCCN(C)c1cc(Cl)ccc1Cl)CCN1C(=O)CC2(CCCC2)CC1=O` are > 1000 nM and 110 nM.
In the case of `CN(C(=O)CNCCN1C(=O)CC2(CCCC2)CC1=O)c1cc(Cl)ccc1Cl`, the Ki in assay [1] and in assay [3] was > 1000 nM each time.
As to `O=C1CC2(CCCC2)CC(=O)N1CCNCCOc1ccccc1Cl`, the Ki in assay [1] and in assay [3] was > 1000 nM each time.
For `O=C1CC2(CCCC2)CC(=O)N1CCN1CCN(c2ccc(Cl)cc2Cl)CC1`, the Ki in assay [1] is 12.1 nM; in assay [3], 3.89 nM.
On the same counts, the results for `O=C1CC2(CCCC2)CC(=O)N1CCN1CCN(c2cc(F)ccc2F)CC1` are 61 nM and 0.14 nM.
On the same counts, the results for `O=C1CC2(CCCC2)CC(=O)N1CCN1CCN(c2ccc(Cl)cc2)CC1` are 599 nM and 35.9 nM.
As for `Cc1ccc(F)c(N2CCN(CCN3C(=O)CC4(CCCC4)CC3=O)CC2)c1`, the inhibitory constant (Ki) is > 1000 nM in assay [2] and 2.38 nM in assay [3].
As for `O=C1CC2(CCCC2)CC(=O)N1CCN1CCN(c2ccc(Cl)c(Cl)c2)CC1`, the Ki in assay [1] amounted to 19.8 nM; in assay [3], 5.38 nM.
On the same counts, the results for `CC1(C)CC(=O)N(CCN2CCN(c3ccccc3Cl)CC2)C(=O)C1` are 65.8 nM and 23.4 nM.
